Reference: patent publication US20090061470A1, “Use of Human Hepatocytes for Determining Liver Function and Liver Regeneration” (priority 2006, published 2009)

Columns and labels:
cytochrome P450 1A2 = settings: Hep G2/C3A-cells; cited from earlier work
Hep G2/C3A-cells = settings: 0.03 mM added to the medium; experimental stage
Description: Synthesis Capacity, for Example Micro-Albumin and Other Protein Synthesis of the Hep G2/C3A Cells (13).
The HepG2/C3A-cells are seeded in 24 well cell culture plates in a concentration of 250,000 cells/well for three days and 0.5 ml plasma from test persons+0.25 ml medium is added. The cells are then rinsed once with medium and after that are incubated with fresh medium (1 ml) for three days. After that micro albumin is determined nephelometrically from 0.2 ml cell culture medium and duplicated (+medium control). Each test batch with plasma from test persons is also duplicated.
Consequently the test period can also be shortened to 48 hours and the cells release measurable quantities of fibrinogen and transferrine (plasma proteins) that can be measured and duplicated in 200 μl cell culture medium.

| Structure (SMILES) | activity of cytochrome P450 1A2 after induction, relative to the initial value (cytochrome P450 1A2) [times the initial value] | synthesis capacity of the Hep G2/C3A-cells (Hep G2/C3A-cells) |
| --- | --- | --- |
| Cc1ccc2cc3c(ccc4ccccc43)c3c2c1CC3 [methylcholanthrene, 3-methylcholanthren] | 40 | – |
| NCCC[C@H](N)C(=O)O.O=C(O)CCC(=O)C(=O)O [ornithine alpha-cetoglutarates] | – | increased |
